Test results from patent publication US4877870A, “Process for producing 10-hydroxyanthracyclines” (Kirin Beer Kabushiki Kaisha, priority 1986, dated 1989).

Settings: ICR mice, intravenous injection

Compound: CC[C@@]1(O)C[C@H](O[C@H]2C[C@H](N3CCOCC3)[C@H](O)[C@H](C)O2)c2c(O)c3c(c(O)c2[C@H]1O)C(=O)c1cccc(O)c1C3=O [M-R20X2, 3'-deamino-3'-(4-morpholinyl)-13-deoxo-10-hydroxycarminomycin]
- LD50: 3.55 mg/kg
